This assay deals with T1, CB2 receptor (cannabinoid receptor 2) (Homo sapiens, UniProt P34972).
T1 construct: gene CNR2
Put plainly: radioligand binding assay, dose-response.

T1 sequence (P34972 whole entry): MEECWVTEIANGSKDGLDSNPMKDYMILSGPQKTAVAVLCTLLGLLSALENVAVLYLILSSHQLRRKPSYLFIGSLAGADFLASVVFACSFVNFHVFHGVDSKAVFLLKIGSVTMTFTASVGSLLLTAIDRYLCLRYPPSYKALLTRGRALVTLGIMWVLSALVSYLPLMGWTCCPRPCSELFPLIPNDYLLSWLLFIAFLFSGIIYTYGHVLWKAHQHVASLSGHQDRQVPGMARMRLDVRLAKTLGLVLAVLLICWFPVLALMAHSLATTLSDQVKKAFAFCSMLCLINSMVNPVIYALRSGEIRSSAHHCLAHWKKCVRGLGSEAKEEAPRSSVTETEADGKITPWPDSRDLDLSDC

`CCCn1c(C)c(C(=O)NCC(=O)N2CCCCC2)c2cc(OC)ccc21` [ZINC77179032] had a Ki of 3.77 µM.
